Test results as given in ChEMBL document CHEMBL3045814, “Antifungal activity of Hinokitiol-related compounds on wood-rotting fungi and their insecticidal activities” (2000).
Converted amounts (≈) assume the structure as drawn. The source made the active and inactive calls. The rule behind the calls is not given here.

Assays:
Assay type in all cases: functional
[1] = system: Coptotermes formosanus; test: Insecticidal activity against Coptotermes formosanus assessed as mortality after 24 to 48 hr
[2] = system: Fomitopsis dickinsii; test: Antifungal activity against Daedalea dickinsii IFO-4979 assessed as growth inhibition after 7 days by agar dilution method; conditions: for MIC: IFO-4979, 168 h
[3] = system: Lenzites betulinus; test: Antifungal activity against Lenzites betulinus IFO-4964 assessed as growth inhibition after 7 days by agar dilution method; conditions: for MIC: IFO-4964, 168 h
[4] = system: Schizophyllum commune; test: Antifungal activity against Schizophyllum commune IFO-4928 assessed as growth inhibition after 7 days by agar dilution method; conditions: for MIC: IFO-4928, 168 h
[5] = system: Trametes coccinea; test: Antifungal activity against Pycnoporus coccineus IFO-4924 assessed as growth inhibition after 7 days by agar dilution method; conditions: for MIC: IFO-4924, 168 h
[6] = system: Trametes versicolor; test: Antifungal activity against Trametes versicolor IFO-4940 assessed as growth inhibition after 7 days by agar dilution method; conditions: for MIC: IFO-4940, 168 h
[7] = system: Tyrophagus putrescentiae; test: Insecticidal activity against Tyrophagus putrescentiae assessed as mortality after 24 hr by clip method
[8] = system: Coptotermes formosanus; test: Insecticidal activity against Coptotermes formosanus assessed as mortality at 0.02 g/m2 after 48 hr relative to control
[9] = system: Coptotermes formosanus; test: Insecticidal activity against Coptotermes formosanus assessed as mortality at 0.1 g/m2 after 48 hr relative to control
[10] = system: Coptotermes formosanus; test: Insecticidal activity against Coptotermes formosanus assessed as mortality at 0.1 g/m2 after 24 hr relative to control
[11] = system: Tyrophagus putrescentiae; test: Insecticidal activity against Tyrophagus putrescentiae assessed as mortality at 0.1 g/m2 after 24 hr by clip method relative to control
[12] = system: Tyrophagus putrescentiae; test: Insecticidal activity against Tyrophagus putrescentiae assessed as mortality at 0.2 g/m2 after 24 hr by clip method relative to control
[13] = system: Coptotermes formosanus; test: Insecticidal activity against Coptotermes formosanus assessed as mortality at 1 g/m2 after 48 hr relative to control
[14] = system: Tyrophagus putrescentiae; test: Insecticidal activity against Tyrophagus putrescentiae assessed as mortality at 0.01 g/m2 after 24 hr by clip method relative to control
[15] = system: Tyrophagus putrescentiae; test: Insecticidal activity against Tyrophagus putrescentiae assessed as mortality at 0.05 g/m2 after 24 hr by clip method relative to control
[16] = system: Coptotermes formosanus; test: Insecticidal activity against Coptotermes formosanus assessed as mortality at 0.02 g/m2 after 24 hr relative to control
[17] = system: Tyrophagus putrescentiae; test: Insecticidal activity against Tyrophagus putrescentiae assessed as mortality at 0.5 g/m2 after 24 hr by clip method relative to control
[18] = system: Coptotermes formosanus; test: Insecticidal activity against Coptotermes formosanus assessed as mortality at 0.05 g/m2 after 48 hr relative to control
[19] = system: Coptotermes formosanus; test: Insecticidal activity against Coptotermes formosanus assessed as mortality at 0.01 g/m2 after 48 hr relative to control
[20] = system: Coptotermes formosanus; test: Insecticidal activity against Coptotermes formosanus assessed as mortality at 0.05 g/m2 after 24 hr relative to control
[21] = system: Tyrophagus putrescentiae; test: Insecticidal activity against Tyrophagus putrescentiae assessed as mortality at 0.02 g/m2 after 24 hr by clip method relative to control
[22] = system: Coptotermes formosanus; test: Insecticidal activity against Coptotermes formosanus assessed as mortality at 1 g/m2 after 24 hr relative to control
[23] = system: Coptotermes formosanus; test: Insecticidal activity against Coptotermes formosanus assessed as mortality at 0.2 g/m2 after 24 hr relative to control
[24] = system: Coptotermes formosanus; test: Insecticidal activity against Coptotermes formosanus assessed as mortality at 0.2 g/m2 after 48 hr relative to control
[25] = system: Tyrophagus putrescentiae; test: Insecticidal activity against Tyrophagus putrescentiae assessed as mortality at 1 g/m2 after 24 hr by clip method relative to control
[26] = system: Coptotermes formosanus; test: Insecticidal activity against Coptotermes formosanus assessed as mortality at 0.01 g/m2 after 24 hr relative to control
[27] = system: Coptotermes formosanus; test: Insecticidal activity against Coptotermes formosanus assessed as mortality at 0.00050 g/m2 after 24 hr relative to control
[28] = system: Coptotermes formosanus; test: Insecticidal activity against Coptotermes formosanus assessed as mortality at 0.00001 g/m2 after 48 hr relative to control
[29] = system: Coptotermes formosanus; test: Insecticidal activity against Coptotermes formosanus assessed as mortality at 0.00050 g/m2 after 48 hr relative to control
[30] = system: Coptotermes formosanus; test: Insecticidal activity against Coptotermes formosanus assessed as mortality at 0.00001 g/m2 after 24 hr relative to control
[31] = system: Coptotermes formosanus; test: Insecticidal activity against Coptotermes formosanus assessed as mortality at 0.00025 g/m2 after 48 hr relative to control
[32] = system: Coptotermes formosanus; test: Insecticidal activity against Coptotermes formosanus assessed as mortality at 0.00010 g/m2 after 24 hr relative to control
[33] = system: Coptotermes formosanus; test: Insecticidal activity against Coptotermes formosanus assessed as mortality at 0.00005 g/m2 after 48 hr relative to control
[34] = system: Coptotermes formosanus; test: Insecticidal activity against Coptotermes formosanus assessed as mortality at 0.00005 g/m2 after 24 hr relative to control
[35] = system: Coptotermes formosanus; test: Insecticidal activity against Coptotermes formosanus assessed as mortality at 0.00025 g/m2 after 24 hr relative to control
[36] = system: Coptotermes formosanus; test: Insecticidal activity against Coptotermes formosanus assessed as mortality at 0.00010 g/m2 after 48 hr relative to control

Row | Compound | MIC [2] | MIC [3] | MIC [4] | MIC [5] | MIC [6] | LC50 [1] | mortality [8] | mortality [9] | mortality [10] | mortality [11] | mortality [12] | mortality [13] | mortality [14] | mortality [15] | mortality [16] | mortality [17] | mortality [18] | LC50 [7] | mortality [21] | mortality [25] | also measured
1 | CC(=O)Oc1cc(C(C)C)cccc1=O |  |  |  |  |  |  |  |  |  |  |  |  |  |  |  |  |  |  |  |  | Activity [1]: inactive; growth inhibition (GI) [2]: inactive; growth inhibition (GI) [3]: inactive; growth inhibition (GI) [4]: inactive; growth inhibition (GI) [5]: inactive; growth inhibition (GI) [6]: inactive; Activity [7]: inactive
2 | C[C@@H]1[C@H](O)[C@@H](C)/C=C/C=C/C=C/C=C/C=C/C=C/C=C/[C@H](O[C@@H]2O[C@H](C)[C@@H](O)[C@H](N)[C@@H]2O)C[C@@H]2O[C@](O)(C[C@@H](O)C[C@@H](O)[C@H](O)CC[C@@H](O)C[C@@H](O)CC(=O)O[C@H]1C)C[C@H](O)[C@H]2C(=O)O [AMPHOTERICIN B] | 0.39 µg/mL (≈ 0.422 µM) | 0.39 µg/mL (≈ 0.422 µM) | 0.39 µg/mL (≈ 0.422 µM) | 0.78 µg/mL (≈ 0.844 µM) | 0.39 µg/mL (≈ 0.422 µM) |  |  |  |  |  |  |  |  |  |  |  |  |  |  |  | 
3 | C=C(C)c1cccc(=O)c(O)c1 [BETA-DOLABRIN] | 0.2 µg/mL (≈ 1.23 µM) | 12.5 µg/mL (≈ 77.1 µM) | 12.5 µg/mL (≈ 77.1 µM) | 25 µg/mL (≈ 154 µM) | 6.25 µg/mL (≈ 38.5 µM) | 0.05 g/m2 | 0% | 95% | 40% | 90% | 100% | 100% | 0% | 91% | 0% | 100% | 11% | 0.02 g/m2 | 31% | 100% | mortality [19]: 0%; mortality [20]: 0%; mortality [22]: 100%; mortality [23]: 100%; mortality [24]: 100%; mortality [26]: 0%
4 | CCOP(=S)(OCC)Oc1nc(Cl)c(Cl)cc1Cl [CHLORPYRIFOS] |  |  |  |  |  | 0.00016 g/m2 |  |  |  |  |  |  |  |  |  |  |  |  |  |  | mortality [27]: 100%; mortality [28]: 0%; mortality [29]: 100%; mortality [30]: 0%; mortality [31]: 100%; mortality [32]: 25%; mortality [33]: 40%; mortality [34]: 10%; mortality [35]: 60%; mortality [36]: 75%
5 | CCN(CC)C(=O)c1cccc(C)c1 [DIETHYLTOLUAMIDE] |  |  |  |  |  |  |  |  |  | 0% | 4.5% |  | 0% | 0% |  | 18.9% |  | 0.79 g/m2 | 0% | 67.1% | 
6 | CC(C)c1ccc(O)c(=O)cc1 [GAMMA-THUJAPLICIN] | 0.2 µg/mL (≈ 1.22 µM) | 12.5 µg/mL (≈ 76.1 µM) | 12.5 µg/mL (≈ 76.1 µM) | 25 µg/mL (≈ 152 µM) | 6.25 µg/mL (≈ 38.1 µM) | 0.05 g/m2 | 11% | 100% | 20% | 84% | 100% | 100% | 0% | 66% | 0% | 100% | 32% | 0.02 g/m2 | 51% | 100% | mortality [19]: 5%; mortality [20]: 10%; mortality [22]: 100%; mortality [23]: 100%; mortality [24]: 100%; mortality [26]: 0%
7 | CC(C)c1cccc(=O)c(O)c1 [HINOKITIOL] | 0.2 µg/mL (≈ 1.22 µM) | 12.5 µg/mL (≈ 76.1 µM) | 12.5 µg/mL (≈ 76.1 µM) | 12.5 µg/mL (≈ 76.1 µM) | 12.5 µg/mL (≈ 76.1 µM) | 0.07 g/m2 | 20% | 100% | 50% | 11.9% | 33.6% | 100% | 0% | 0% | 10% | 91.3% | 50% | 0.246 g/m2 | 0% | 100% | mortality [19]: 0%; mortality [20]: 40%; mortality [22]: 100%; mortality [23]: 100%; mortality [24]: 100%; mortality [26]: 0%
